Test results: PubChem BioAssay (NCI)
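Protocol summary: plate cells (96-well), add compound at 5 concentrations, incubate 48 h, interpolate endpoints linearly. TGI: total growth inhibition.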

Key:
Test in all cases: DTP human tumour cell line panel, 48 h
[1] = system: MDA-MB-231 breast
[2] = system: PC-3 prostate
[3] = system: U251 CNS
[4] = system: HOP-92 NSCLC
[5] = system: UACC-62 melanoma
[6] = system: BT-549 breast
[7] = system: SR leukemia
[8] = system: HL-60(TB) leukemia
[9] = system: DU-145 prostate
[10] = system: HT29 colon
[11] = system: NCI-H23 lung
[12] = system: T-47D breast
[13] = system: UACC-257 melanoma
[14] = system: HS 578T breast
[15] = system: MOLT-4 leukemia
[16] = system: RXF 393 renal
[17] = system: SF-295 CNS
[18] = system: MDA-N
[19] = system: CCRF-CEM leukemia

Structure (SMILES): Cc1cccc(N=C/C=C(\Cl)c2ccc3ccccc3c2)c1
- TGI [1]: 33.6 µM
- TGI [2]: 53.1 µM
- TGI [3]: 31 µM
- TGI [4]: > 62.3 µM
- TGI [5]: 32.5 µM
- TGI [6]: 44.5 µM
- TGI [7]: 8.24 µM
- TGI [8]: 38.5 µM
- TGI [9]: 36.9 µM
- TGI [10]: > 62.7 µM
- TGI [11]: 34.5 µM
- TGI [12]: 37.2 µM
- TGI [13]: 39.1 µM
- TGI [14]: > 96.7 µM
- TGI [15]: 8.19 µM
- TGI [16]: > 56.9 µM
- TGI [17]: > 58.7 µM

Structure (SMILES): COC(=O)CC(CNC(=O)OCc1ccccc1)OCc1ccc(OC)cc1 (stereo unspecified)
- TGI [1]: > 100 µM
- TGI [2]: > 100 µM
- TGI [3]: > 100 µM
- TGI [18]: > 100 µM
- TGI [4]: > 100 µM
- TGI [5]: > 100 µM
- TGI [6]: > 100 µM
- TGI [7]: > 100 µM
- TGI [8]: > 100 µM
- TGI [9]: > 100 µM
- TGI [11]: > 100 µM
- TGI [13]: > 100 µM
- TGI [19]: > 100 µM
- TGI [15]: > 100 µM
- TGI [16]: > 100 µM
- TGI [17]: > 100 µM

Structure (SMILES): COC(=O)[C@H](COC(C)(C)C)NC(=O)N[C@H](C)c1ccccc1
- TGI [1]: > 100 µM
- TGI [2]: > 100 µM
- TGI [3]: > 100 µM
- TGI [18]: > 100 µM
- TGI [4]: > 100 µM
- TGI [5]: > 100 µM
- TGI [6]: > 100 µM
- TGI [7]: > 100 µM
- TGI [8]: > 100 µM
- TGI [9]: > 100 µM
- TGI [10]: > 100 µM
- TGI [11]: > 100 µM
- TGI [13]: > 100 µM
- TGI [14]: > 100 µM
- TGI [19]: > 100 µM
- TGI [15]: > 100 µM
- TGI [17]: > 100 µM

Structure (SMILES): CC1=NC=C(O)c2ccccc2O1
- TGI [3]: > 100 µM
- TGI [4]: > 100 µM
- TGI [5]: > 100 µM
- TGI [8]: > 100 µM
- TGI [10]: > 100 µM
- TGI [11]: > 100 µM
- TGI [13]: > 100 µM
- TGI [19]: > 100 µM
- TGI [15]: > 100 µM
- TGI [16]: > 100 µM
- TGI [17]: > 100 µM

Structure (SMILES): O=P(CCOc1ccccc1OCCP(=O)(c1ccccc1)c1ccc2c(c1)OCCOCCOCCOCCO2)(c1ccccc1)c1ccc2c(c1)OCCOCCOCCOCCO2 (stereo unspecified)
- TGI [3]: > 100 µM
- TGI [4]: > 100 µM
- TGI [5]: > 100 µM
- TGI [7]: > 100 µM
- TGI [8]: > 100 µM
- TGI [10]: > 100 µM
- TGI [11]: > 100 µM
- TGI [13]: > 100 µM
- TGI [19]: > 100 µM
- TGI [15]: > 100 µM
- TGI [16]: > 100 µM
- TGI [17]: > 100 µM

Structure (SMILES): CCCCCC#COC1CC(C)CC[C@@H]1C(C)C (stereo partly specified)
- TGI [3]: > 100 µM
- TGI [4]: > 100 µM
- TGI [5]: > 100 µM
- TGI [8]: 55 µM
- TGI [10]: > 100 µM
- TGI [11]: > 100 µM
- TGI [13]: > 100 µM
- TGI [19]: 31.9 µM
- TGI [16]: 86.9 µM
- TGI [17]: > 100 µM

Structure (SMILES): CN1c2ccccc2C(=O)NC12CCNCC2
- TGI [3]: > 100 µM
- TGI [4]: > 100 µM
- TGI [5]: > 100 µM
- TGI [7]: > 100 µM
- TGI [8]: > 100 µM
- TGI [9]: > 100 µM
- TGI [10]: > 100 µM
- TGI [11]: > 100 µM
- TGI [12]: > 100 µM
- TGI [13]: > 100 µM
- TGI [14]: 40 µM
- TGI [19]: > 100 µM
- TGI [15]: > 100 µM
- TGI [16]: > 100 µM
- TGI [17]: > 100 µM

Structure (SMILES): CC1(C)SCc2nc3ccccc3n21
- TGI [1]: > 100 µM
- TGI [2]: > 100 µM
- TGI [3]: > 100 µM
- TGI [18]: > 100 µM
- TGI [4]: > 100 µM
- TGI [5]: > 100 µM
- TGI [8]: > 100 µM
- TGI [9]: > 100 µM
- TGI [10]: > 100 µM
- TGI [11]: > 100 µM
- TGI [12]: > 100 µM
- TGI [13]: > 100 µM
- TGI [14]: > 100 µM
- TGI [19]: > 100 µM
- TGI [15]: > 100 µM
- TGI [16]: > 100 µM
- TGI [17]: > 100 µM

Structure (SMILES): C/C(=C\CNc1ncnc2c1ncn2CCC(=O)OC(C)(C)C)CO
- TGI [1]: > 100 µM
- TGI [2]: > 100 µM
- TGI [18]: > 100 µM
- TGI [4]: > 100 µM
- TGI [5]: > 100 µM
- TGI [7]: > 100 µM
- TGI [8]: > 100 µM
- TGI [9]: > 100 µM
- TGI [10]: > 100 µM
- TGI [11]: > 100 µM
- TGI [12]: > 100 µM
- TGI [13]: > 100 µM
- TGI [14]: > 100 µM
- TGI [19]: > 100 µM
- TGI [15]: > 100 µM
- TGI [16]: > 100 µM
- TGI [17]: > 100 µM

Structure (SMILES): CC1CCC2CC1NC(=O)CCOCCC(=O)NC2(C)C (stereo unspecified)
- TGI [1]: > 100 µM
- TGI [2]: > 100 µM
- TGI [3]: > 100 µM
- TGI [18]: > 100 µM
- TGI [4]: > 100 µM
- TGI [5]: > 100 µM
- TGI [6]: > 100 µM
- TGI [7]: > 100 µM
- TGI [8]: > 100 µM
- TGI [9]: > 100 µM
- TGI [10]: > 100 µM
- TGI [11]: > 100 µM
- TGI [12]: > 100 µM
- TGI [13]: > 100 µM
- TGI [19]: > 100 µM
- TGI [15]: > 100 µM
- TGI [17]: > 100 µM

Structure (SMILES): COC1=CC(=O)c2c(cc3c(c2O)-c2c(OC)cc4cc5c(c(O)c4c2OC(=O)CC(C)(O)C3)C(=O)CC(C)(O)C5)C1=O (stereo unspecified)
- TGI [3]: 9.92 µM
- TGI [4]: 4.12 µM
- TGI [5]: 2.57 µM
- TGI [7]: 5.07 µM
- TGI [8]: 5.56 µM
- TGI [10]: 6.59 µM
- TGI [11]: 2.46 µM
- TGI [13]: 5.34 µM
- TGI [19]: 6.59 µM
- TGI [15]: 6.67 µM
- TGI [16]: 3.89 µM
- TGI [17]: 3.48 µM

Structure (SMILES): COc1ccc2[nH]c3c4c(cc(-c5ccccc5)c3c2c1)C(=O)N(c1ccccc1)C4=O
- TGI [3]: 36.7 µM
- TGI [4]: 74 µM
- TGI [5]: > 90.6 µM
- TGI [7]: 19.9 µM
- TGI [8]: > 100 µM
- TGI [10]: > 100 µM
- TGI [11]: 98.6 µM
- TGI [13]: > 100 µM
- TGI [19]: 15.1 µM
- TGI [15]: > 100 µM
- TGI [16]: 69.7 µM
- TGI [17]: 33.7 µM

Structure (SMILES): CN(C)CC1CCCCCCCCCCCCC(CN(C)C)C1=O (stereo unspecified)
- TGI [3]: 28 µM
- TGI [4]: 26.3 µM
- TGI [5]: 26.1 µM
- TGI [7]: 14 µM
- TGI [10]: 18.5 µM
- TGI [11]: 32 µM
- TGI [13]: 29.9 µM
- TGI [15]: 20.8 µM
- TGI [16]: 24 µM
- TGI [17]: 29.6 µM

Structure (SMILES): O=C(O)C1=CN(c2ccncc2)C(c2ccco2)=CC1c1ccccc1[N+](=O)[O-] (stereo unspecified)
- TGI [1]: 30.6 µM
- TGI [2]: 28 µM
- TGI [3]: 24.2 µM
- TGI [4]: 27.7 µM
- TGI [5]: 33.6 µM
- TGI [6]: 26.9 µM
- TGI [8]: > 100 µM
- TGI [9]: 26.7 µM
- TGI [10]: 6.18 µM
- TGI [11]: 29.1 µM
- TGI [12]: 25 µM
- TGI [13]: 5.35 µM
- TGI [14]: 62.4 µM
- TGI [19]: > 100 µM
- TGI [15]: 14 µM
- TGI [16]: 15.5 µM
- TGI [17]: 26.2 µM

Structure (SMILES): Oc1c(Cl)c(Cl)c(O)c(CCNc2nccs2)c1Cl
- TGI [1]: 2.16 µM
- TGI [2]: 45.1 µM
- TGI [3]: 66.1 µM
- TGI [4]: > 100 µM
- TGI [5]: 40.5 µM
- TGI [7]: 25.6 µM
- TGI [8]: > 100 µM
- TGI [9]: 19.8 µM
- TGI [10]: 51.8 µM
- TGI [11]: 37.9 µM
- TGI [12]: 34.8 µM
- TGI [13]: 58.7 µM
- TGI [19]: > 100 µM
- TGI [15]: 94.3 µM
- TGI [16]: 20.3 µM
- TGI [17]: 41.5 µM
